In ChEMBL document CHEMBL1201862, “PubChem BioAssay data set” (2004):
Activity calls are given as the source filed them.

Key:
Large T antigen = Large T antigen (Simian virus 40, UniProt P03070); type: functional, Betapolyomavirus macacae;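 also: Confirmatory-stage PubChem screen for compounds that inhibit SV40 T antigen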
[1] = molecular target: T1, Rac GTPase-activating protein 1 (Homo sapiens, UniProt Q9H0H5); assay: blockers of MgcRacGAP-driven Rac1 GTP hydrolysis – biochemical, ADP Hunter fluorescence, primary and confirmatory, confirmation (AID 624330); type: functional
T1 sequence (Q9H0H5 whole entry): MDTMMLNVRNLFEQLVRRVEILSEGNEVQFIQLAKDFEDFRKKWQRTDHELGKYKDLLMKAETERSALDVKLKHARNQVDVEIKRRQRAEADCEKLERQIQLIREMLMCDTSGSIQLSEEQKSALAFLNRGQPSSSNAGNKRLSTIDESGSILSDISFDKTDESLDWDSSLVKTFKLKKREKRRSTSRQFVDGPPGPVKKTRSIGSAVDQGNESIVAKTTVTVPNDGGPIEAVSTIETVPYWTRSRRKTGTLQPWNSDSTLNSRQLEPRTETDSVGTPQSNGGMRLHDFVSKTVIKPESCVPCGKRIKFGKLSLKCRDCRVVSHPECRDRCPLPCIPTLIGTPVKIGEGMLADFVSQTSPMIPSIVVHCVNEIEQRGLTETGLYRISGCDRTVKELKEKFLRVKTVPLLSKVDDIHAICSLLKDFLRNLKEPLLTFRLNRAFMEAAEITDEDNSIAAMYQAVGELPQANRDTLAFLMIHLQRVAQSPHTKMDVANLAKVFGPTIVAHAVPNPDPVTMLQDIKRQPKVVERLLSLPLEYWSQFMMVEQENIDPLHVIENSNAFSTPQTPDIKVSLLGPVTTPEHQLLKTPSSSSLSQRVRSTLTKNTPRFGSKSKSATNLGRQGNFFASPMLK

[2] = viability loss in HeLa cells – cytotoxicity control for MgcRacGAP inhibitor project, dose response (AID 624300); type: functional
Caspase-6 = molecular target: T2, Caspase-6 (Homo sapiens, UniProt P55212); assay: inhibition of CASP6 peptide cleavage – biochemical, VEID-R110 fluorescence, cherry-pick, dose response (AID 720632)
T2 sequence (P55212 whole entry): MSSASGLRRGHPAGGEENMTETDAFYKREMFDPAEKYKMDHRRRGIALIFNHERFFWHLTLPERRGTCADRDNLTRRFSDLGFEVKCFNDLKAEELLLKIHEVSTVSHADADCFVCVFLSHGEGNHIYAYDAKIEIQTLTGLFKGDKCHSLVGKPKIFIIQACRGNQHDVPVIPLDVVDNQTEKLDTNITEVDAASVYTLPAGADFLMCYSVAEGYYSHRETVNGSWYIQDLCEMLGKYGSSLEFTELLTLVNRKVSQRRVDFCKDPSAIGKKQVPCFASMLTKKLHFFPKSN

[3] = molecular target: T3, Carboxy-terminal domain RNA polymerase II polypeptide A small phosphatase 1 (Homo sapiens, UniProt Q9GZU7); assay: CTDSP1 inhibitors, concentration-response, biochemical, absorbance readout, ultra-high-throughput screen actives (AID 540297); type: functional
T3 sequence (Q9GZU7 whole entry): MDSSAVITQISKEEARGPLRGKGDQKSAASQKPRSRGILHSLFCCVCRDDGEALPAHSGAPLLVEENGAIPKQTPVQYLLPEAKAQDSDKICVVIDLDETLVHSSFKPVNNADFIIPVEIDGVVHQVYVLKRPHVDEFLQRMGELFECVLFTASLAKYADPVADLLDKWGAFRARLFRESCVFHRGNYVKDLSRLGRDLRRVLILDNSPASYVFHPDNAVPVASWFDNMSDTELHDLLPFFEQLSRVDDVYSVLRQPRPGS

cells [4] = type: functional, cell-based
[5] = molecular target: T4, Trace amine-associated receptor 1 (Homo sapiens, UniProt Q96RJ0); assay: Counterscreen for agonists of the human trace amine associated receptor 1 (hTAAR1): Fluorescence-based cell-based high throughput dose response assay to identify hTAAR1 agonist that also desensitize TAAR1 receptor response.; type: functional
T4 sequence (Q96RJ0 whole entry): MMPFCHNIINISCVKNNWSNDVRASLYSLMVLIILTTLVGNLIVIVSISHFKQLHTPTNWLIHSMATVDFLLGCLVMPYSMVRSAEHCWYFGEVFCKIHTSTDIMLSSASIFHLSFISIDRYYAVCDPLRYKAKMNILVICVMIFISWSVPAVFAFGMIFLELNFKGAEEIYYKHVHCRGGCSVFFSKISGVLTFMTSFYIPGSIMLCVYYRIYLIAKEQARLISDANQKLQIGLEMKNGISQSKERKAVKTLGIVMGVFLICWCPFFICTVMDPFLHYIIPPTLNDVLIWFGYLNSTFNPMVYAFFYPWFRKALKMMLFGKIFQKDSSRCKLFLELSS

cells [6] = type: functional, cell-based; remark: listed apart in the source
[7] = molecular target: T4, Trace amine-associated receptor 1; assay: Fluorescence-based cell-based high throughput dose response assay to identify agonists of the human trace amine associated receptor 1 (TAAR1).; type: functional
Albumin = Albumin (Bos taurus, UniProt P02769); assay: Counterscreen for inhibitors of T-cell receptor (TCR)-CD3 interaction: Fluorescence-based biochemical high throughput dose response assay to identify inhibitors of T-cell receptor (TCR)-CD3 interaction using a TAMRA-labeled BSA probe.; type: functional
[8] = THP-1 cell cytotoxicity, dose response, cytotoxicity control for non-replicating M. tuberculosis project (AID 489025); type: functional
Nonstructural protein 1 = Nonstructural protein 1 (Influenza A virus, UniProt Q194T2); type: functional, Influenza A virus (A/California/07/2009(H1N1))
Cytochrome P450 2C9 = Cytochrome P450 2C9 (Homo sapiens, UniProt P11712)
Protein Wnt-3a = Protein Wnt-3a (Mus musculus, UniProt P27467); assay: SAR analysis of small molecule antagonists of Gli-SUFU in a Wnt3a luminescent reporter assay.; type: functional
Protein RecA = molecular target: T5, Protein RecA (Mycobacterium tuberculosis, UniProt P9WHJ3); assay: Fluorescence Cell-Free Homogeneous Dose Retest to Identify Inhibitors of RecA-Intein Splicing Activity. [Related pubchem assays (depositor defined):AID2097, AID2223, AID489010, AID492950]; type: functional
T5 sequence (P9WHJ3 whole entry): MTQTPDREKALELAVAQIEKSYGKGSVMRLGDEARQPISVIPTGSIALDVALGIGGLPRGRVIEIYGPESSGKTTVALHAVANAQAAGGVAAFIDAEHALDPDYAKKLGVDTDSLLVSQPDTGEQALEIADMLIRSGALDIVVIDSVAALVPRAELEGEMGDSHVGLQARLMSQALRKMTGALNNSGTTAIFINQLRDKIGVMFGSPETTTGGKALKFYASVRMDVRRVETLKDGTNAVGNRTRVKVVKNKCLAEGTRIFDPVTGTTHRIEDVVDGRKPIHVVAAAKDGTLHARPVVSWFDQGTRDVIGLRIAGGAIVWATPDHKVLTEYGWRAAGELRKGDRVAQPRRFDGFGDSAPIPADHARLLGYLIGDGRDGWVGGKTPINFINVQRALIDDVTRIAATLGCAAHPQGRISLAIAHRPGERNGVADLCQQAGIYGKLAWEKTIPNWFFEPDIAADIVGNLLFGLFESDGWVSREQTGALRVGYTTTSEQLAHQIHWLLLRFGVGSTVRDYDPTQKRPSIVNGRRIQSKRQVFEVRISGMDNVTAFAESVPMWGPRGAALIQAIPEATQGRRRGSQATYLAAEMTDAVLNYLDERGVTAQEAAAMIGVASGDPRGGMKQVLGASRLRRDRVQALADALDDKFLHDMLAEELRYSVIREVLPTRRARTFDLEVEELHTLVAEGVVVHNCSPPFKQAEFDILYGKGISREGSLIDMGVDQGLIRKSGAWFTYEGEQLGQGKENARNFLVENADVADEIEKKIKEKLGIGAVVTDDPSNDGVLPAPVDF

[9] = molecular target: T6, Replicative DNA helicase DnaB (Mycobacterium tuberculosis, UniProt P9WMR3); assay: DnaB intein splicing inhibitors, dose response, biochemical, cell-free fluorescence (AID 449749); type: functional
T6 sequence (P9WMR3 whole entry): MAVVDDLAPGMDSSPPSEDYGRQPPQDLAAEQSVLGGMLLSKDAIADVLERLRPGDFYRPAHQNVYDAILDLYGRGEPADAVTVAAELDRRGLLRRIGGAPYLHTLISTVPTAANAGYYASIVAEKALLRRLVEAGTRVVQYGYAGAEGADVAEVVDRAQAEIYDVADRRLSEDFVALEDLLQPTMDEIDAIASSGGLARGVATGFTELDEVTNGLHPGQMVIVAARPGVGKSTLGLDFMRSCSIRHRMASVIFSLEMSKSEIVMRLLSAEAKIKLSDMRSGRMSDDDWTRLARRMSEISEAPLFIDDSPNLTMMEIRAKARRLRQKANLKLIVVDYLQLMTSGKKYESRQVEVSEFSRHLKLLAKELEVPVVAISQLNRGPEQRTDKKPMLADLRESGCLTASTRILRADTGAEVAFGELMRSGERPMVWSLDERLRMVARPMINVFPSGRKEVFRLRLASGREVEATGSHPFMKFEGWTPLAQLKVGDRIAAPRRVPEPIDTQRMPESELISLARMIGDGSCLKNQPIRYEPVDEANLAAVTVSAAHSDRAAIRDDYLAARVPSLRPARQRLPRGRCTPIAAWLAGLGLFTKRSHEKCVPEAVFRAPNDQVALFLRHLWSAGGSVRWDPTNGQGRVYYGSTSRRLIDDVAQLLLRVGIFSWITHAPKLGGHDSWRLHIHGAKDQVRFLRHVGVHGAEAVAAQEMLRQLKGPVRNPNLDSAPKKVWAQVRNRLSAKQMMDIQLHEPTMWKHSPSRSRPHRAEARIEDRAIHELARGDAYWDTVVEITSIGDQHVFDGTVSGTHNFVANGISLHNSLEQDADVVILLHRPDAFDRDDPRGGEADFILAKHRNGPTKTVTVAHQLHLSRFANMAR

[10] = molecular target: T7, Corticotropin-releasing factor receptor 2/Corticotropin-releasing factor-binding protein (Homo sapiens, UniProt P24387+Q13324); assay: activators of CRF receptor 2 with binding protein – uHTS hits, confirmation (AID 602473); type: functional; conditions: read-out: EC50_Mean
T7 sequence (Q13324 whole entry): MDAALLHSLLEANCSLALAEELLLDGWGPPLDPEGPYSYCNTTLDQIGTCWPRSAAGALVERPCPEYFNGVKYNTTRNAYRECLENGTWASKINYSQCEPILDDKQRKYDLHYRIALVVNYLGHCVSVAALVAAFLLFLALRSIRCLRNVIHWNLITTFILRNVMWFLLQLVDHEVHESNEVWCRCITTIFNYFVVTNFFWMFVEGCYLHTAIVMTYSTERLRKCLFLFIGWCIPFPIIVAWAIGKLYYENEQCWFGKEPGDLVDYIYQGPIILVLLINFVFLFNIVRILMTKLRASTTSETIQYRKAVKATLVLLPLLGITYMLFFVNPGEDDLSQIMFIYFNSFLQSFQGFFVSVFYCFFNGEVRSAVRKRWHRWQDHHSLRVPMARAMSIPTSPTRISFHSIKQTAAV
T7 sequence (P24387 whole entry): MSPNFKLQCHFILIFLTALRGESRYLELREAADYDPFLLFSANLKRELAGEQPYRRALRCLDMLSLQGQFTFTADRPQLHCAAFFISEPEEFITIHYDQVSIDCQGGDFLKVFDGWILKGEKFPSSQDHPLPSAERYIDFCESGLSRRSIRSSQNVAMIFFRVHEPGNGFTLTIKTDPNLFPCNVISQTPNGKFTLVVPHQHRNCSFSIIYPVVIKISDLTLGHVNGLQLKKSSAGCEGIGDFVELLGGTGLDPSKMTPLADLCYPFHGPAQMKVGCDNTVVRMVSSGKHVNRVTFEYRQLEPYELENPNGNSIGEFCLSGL

[11] = Trypanosoma cruzi growth suppression in host cells – NIH3T3 host cells, beta-gal luminescence, confirmation (AID 2044); type: functional, cell-based;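 also: intracellular parasites grown in NIH/3T3 mouse fibroblasts as host cells; luminescent beta-galactosidase reporter signal from transgenic T. cruzi replicating inside host cells; inhibitors lower the luminescence signal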
[12] = NIH3T3 cell viability loss – ATP luminescence, mouse fibroblasts, counter-screen, dose response (AID 2010); type: functional, cell-based;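 also: cells exposed to compound for about 90 hours before reading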

Sequence of Protein Wnt-3a (P27467 whole entry): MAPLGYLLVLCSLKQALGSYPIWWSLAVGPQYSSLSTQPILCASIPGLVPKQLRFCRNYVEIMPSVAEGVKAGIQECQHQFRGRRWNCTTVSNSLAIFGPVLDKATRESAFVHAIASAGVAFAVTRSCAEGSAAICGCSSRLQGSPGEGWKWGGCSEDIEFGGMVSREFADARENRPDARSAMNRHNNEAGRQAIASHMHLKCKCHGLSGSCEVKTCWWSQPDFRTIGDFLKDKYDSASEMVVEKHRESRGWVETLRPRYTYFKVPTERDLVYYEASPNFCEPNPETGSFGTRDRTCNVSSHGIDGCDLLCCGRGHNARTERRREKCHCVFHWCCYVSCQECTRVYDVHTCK
Sequence of Albumin (P02769 whole entry): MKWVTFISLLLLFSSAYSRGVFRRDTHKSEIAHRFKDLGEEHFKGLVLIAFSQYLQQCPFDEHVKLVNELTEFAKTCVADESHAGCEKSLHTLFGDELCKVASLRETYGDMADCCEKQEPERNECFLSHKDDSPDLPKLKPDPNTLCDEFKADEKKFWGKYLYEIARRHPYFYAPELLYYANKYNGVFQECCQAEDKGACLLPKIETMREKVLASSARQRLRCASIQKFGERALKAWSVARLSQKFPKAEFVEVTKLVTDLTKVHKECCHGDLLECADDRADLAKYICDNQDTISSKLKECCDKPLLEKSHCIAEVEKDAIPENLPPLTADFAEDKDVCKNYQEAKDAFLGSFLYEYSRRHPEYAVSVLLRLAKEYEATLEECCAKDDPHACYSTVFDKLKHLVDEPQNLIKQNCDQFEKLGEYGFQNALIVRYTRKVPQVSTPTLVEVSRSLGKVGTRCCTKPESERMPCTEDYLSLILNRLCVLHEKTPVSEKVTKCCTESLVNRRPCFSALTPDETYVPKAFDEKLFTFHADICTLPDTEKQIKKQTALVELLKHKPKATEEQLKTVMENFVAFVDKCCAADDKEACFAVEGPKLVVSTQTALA
Sequence of Cytochrome P450 2C9 (P11712 whole entry): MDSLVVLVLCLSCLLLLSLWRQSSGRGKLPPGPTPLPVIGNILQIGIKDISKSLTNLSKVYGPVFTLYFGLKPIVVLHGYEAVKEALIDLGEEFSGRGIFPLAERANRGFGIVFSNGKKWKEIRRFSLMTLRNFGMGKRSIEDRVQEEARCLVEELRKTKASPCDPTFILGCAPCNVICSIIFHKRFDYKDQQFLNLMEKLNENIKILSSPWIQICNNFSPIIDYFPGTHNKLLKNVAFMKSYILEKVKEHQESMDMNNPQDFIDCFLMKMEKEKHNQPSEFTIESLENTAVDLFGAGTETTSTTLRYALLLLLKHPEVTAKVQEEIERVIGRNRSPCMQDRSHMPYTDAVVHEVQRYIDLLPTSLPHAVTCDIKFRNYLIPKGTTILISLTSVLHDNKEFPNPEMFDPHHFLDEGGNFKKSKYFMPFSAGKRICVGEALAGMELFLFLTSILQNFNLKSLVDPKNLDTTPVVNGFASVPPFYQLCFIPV
Sequence of Nonstructural protein 1 (Q194T2 whole entry): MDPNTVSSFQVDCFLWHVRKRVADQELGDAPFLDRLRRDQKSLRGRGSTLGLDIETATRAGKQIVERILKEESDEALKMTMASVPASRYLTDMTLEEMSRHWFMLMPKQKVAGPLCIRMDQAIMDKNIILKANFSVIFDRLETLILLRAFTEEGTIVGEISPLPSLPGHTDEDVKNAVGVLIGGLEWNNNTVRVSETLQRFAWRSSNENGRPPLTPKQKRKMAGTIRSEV
Sequence of Large T antigen (P03070 whole entry): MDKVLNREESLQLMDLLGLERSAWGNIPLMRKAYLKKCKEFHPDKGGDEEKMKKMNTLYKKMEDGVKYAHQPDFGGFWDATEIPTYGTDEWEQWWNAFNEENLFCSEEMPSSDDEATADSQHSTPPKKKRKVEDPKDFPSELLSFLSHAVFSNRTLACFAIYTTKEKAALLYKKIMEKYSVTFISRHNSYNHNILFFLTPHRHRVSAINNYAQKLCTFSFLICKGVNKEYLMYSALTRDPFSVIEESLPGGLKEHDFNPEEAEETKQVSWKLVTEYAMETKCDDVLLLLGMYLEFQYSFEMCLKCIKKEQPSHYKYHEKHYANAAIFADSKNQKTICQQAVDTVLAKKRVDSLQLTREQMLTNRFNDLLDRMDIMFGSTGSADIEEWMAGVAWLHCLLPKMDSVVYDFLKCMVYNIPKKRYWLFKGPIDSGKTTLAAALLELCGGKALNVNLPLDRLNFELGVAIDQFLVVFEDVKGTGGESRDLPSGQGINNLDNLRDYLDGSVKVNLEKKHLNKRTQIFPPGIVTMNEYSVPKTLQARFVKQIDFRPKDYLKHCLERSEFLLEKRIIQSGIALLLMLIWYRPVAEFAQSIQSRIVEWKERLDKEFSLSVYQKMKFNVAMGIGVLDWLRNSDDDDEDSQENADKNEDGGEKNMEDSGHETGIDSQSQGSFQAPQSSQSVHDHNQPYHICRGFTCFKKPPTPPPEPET

Structure (SMILES): COc1cc(/C=C2\SC(=N)NC2=O)ccc1O
- IC50 (Large T antigen): 5.02 µM (active)
- IC50 [1]: 11.8 µM (active)
- CC50 [2]: 69.1 µM (active)

Structure (SMILES): NS(=O)(=O)c1cccc(NC(=O)c2ccc3[nH]cnc3c2)c1
- AC50 (Caspase-6): 17.3 µM (active)
- IC50 [3]: 7.41 µM (active)

Structure (SMILES): CCOc1ccc(/C=N/CC(O)c2ccccc2)cc1 (configuration not stated)
- IC50 (cells [4]): > 29.9 µM (inactive)
- IC50 [5]: 3.27 µM (active)
- EC50 (cells [6]): > 29.9 µM (inactive)
- EC50 [7]: 0.769 µM (active)

Structure (SMILES): O=C(N/N=C/c1cccc([N+](=O)[O-])c1O)c1cccs1
- IC50 (Albumin): > 94.1 µM (inactive)
- CC50 [8]: 32.4 µM (active)
- IC50 (Nonstructural protein 1): 7.41 µM (active)

Structure (SMILES): COC(=O)Nc1ccc(S(=O)(=O)NNC(=O)c2c(O)c3ccccc3[nH]c2=O)cc1
- IC50 (Albumin): > 94.1 µM (inactive)

Structure (SMILES): COc1ccc(C(=O)NNC(=O)CSc2nnc(COc3ccc4ccccc4c3)n2C)cc1
- IC50 (cells [4]): > 29.9 µM (inactive)
- IC50 [5]: > 29.9 µM (inactive)
- AC50 (Cytochrome P450 2C9): inconclusive
- EC50 (cells [6]): > 29.9 µM (inactive)
- EC50 [7]: > 29.9 µM (inactive)

Structure (SMILES): O=C(Nc1cc(N2CCOCC2)ncn1)c1ccccc1
- IC50 (Protein Wnt-3a): > 21.8 µM (inactive)

Structure (SMILES): O=C(Nc1cc(N2CCSCC2)ncn1)c1ccccc1
- IC50 (Protein Wnt-3a): > 21.8 µM (inactive)

Structure (SMILES): O=C([C-](C1=[N+](Cc2ccc(Cl)nc2)CCN1Cc1ccc(Cl)nc1)[N+](=O)[O-])C(Cl)Cl
- AC50 (Caspase-6): 8.77 µM (active)
- EC50 (Protein RecA): 3.48 µM (active)
- AC50 [9]: 2.03 µM (active)
- EC50 [10]: > 53 µM (inactive)

Structure (SMILES): Cc1nc(NC(=O)c2ccccc2)cc(N2CCCCC2)n1
- IC50 (Protein Wnt-3a): > 21.8 µM (inactive)

Structure (SMILES): COc1cc(CN2CCc3ccccc3C2)cc([N+](=O)[O-])c1O
- IC50 (cells [4]): > 29.9 µM (inactive)
- IC50 [5]: 6.77 µM (active)
- EC50 (cells [6]): > 29.9 µM (inactive)
- EC50 [7]: 1.01 µM (active)

Structure (SMILES): CC1CCN(S(=O)(=O)c2ccc(NC(=O)Cn3nnc(-c4ccccc4F)n3)cc2)CC1
- IC50 (Albumin): > 94.1 µM (inactive)
- EC50 [11]: 2.23 µM (active)
- EC50 [12]: > 60 µM (not active)
